Data on nine molecules can be found in patent US12636373B2, “Prodrugs with a tridentate self-immolative linker” (The General Hospital Corporation, priority 2018, dated 2026).

Read-outs that look alike come from different tables or passages of the source.

A short description of series [1]: Pd-mediated uncaging of fluorogenic coumarin substrate (reaction kinetics and catalyst performance). Particulars: PdCl2(TFP)2, HBSS. The method, then:
Reaction kinetics and catalyst performance. Alloc-SIL-dPEG4-AMC (8) was reacted at a concentration of 5 μM with palladium catalyst (Pd-1, Pd-2, Pd-3, Pd-4) at a concentration of 10 μM in HBSS and MEM (see FIG. 8). Alloc2R110 was reacted at a concentration of 5 μM with Pd-1 at a concentration of 10 μM in HBSS as described previously.2 Fluorescence was monitored for 10 h at room temperature using 96 well plates and a Tecan Safire 2 fluorescence plate reader.

Series [2] relates to HT1080 cells. In kind it is cell-based, human. Particulars: for uptake of fluorescent PLGA-PEG NPs: 30 min pre-treatment, imaged 3 h later. On the procedure:
In vitro NP uptake imaging. To quantify subcellular localization of NPs in HT1080 cells, Rab7a-RFP and Lamp1-RFP fusion constructs were expressed using a commercial baculovirus platform (CellLight BacMam 2.0, Invitrogen), following manufacturing guidelines. Pharmacological modulation of NP uptake was performed using the following: staurosporine (1 μM; LC labs), latrunculin B (1 μM; Tocris), cytochalasin D (1 μM; Sigma), chloroquine (50 μM; Sigma), and ethylisopropyl amiloride EIPA (100 μM; Tocris). Cells were rinsed in fresh media immediately prior to imaging; only adherent cells were quantified. Chloroquine dose-response measurements were normalized to the C16proDOX control (rather than the chloroquine-free control), in order to compare relative effects on the potency of Pd-mediated C16proDOX activation itself 50 μM chloroquine alone caused a 15-30% decrease in cell viability.

The subject of series [3] is HT1080 fibrosarcoma cancer cells. Briefly: Resazurin-based cytotoxicity assay, 72 h. Particulars: for IC50: read-out: IC50 (concentration at which 50% of cells died). For orientation: The colour change of resazurin is a common sign of viable cells or microbes.
Method: (§1) In vitro NP characterization: 5,000 cells per well were added to 96-well plates for cytotoxicity assessment; cells were treated after overnight seeding with compound or the appropriate buffer control (drug-free PLGA-PEG NP), and assessed for viability 72 h later using PrestoBlue (Life Technologies) following the manufacturer's protocol.
A short description of series [4]: Resazurin-based cytotoxicity assay, 72 h. Particulars: human, HT1080 fibrosarcoma cancer cells.
Method: as §1
Series [5] can be described thus: In vitro NP prodrug release in PBS. Particulars: over 72 h at 37° C. in PBS. In kind it is physicochemical. On the procedure: Transmission electron microscopy (TEM) was performed in the Microscopy Core of the Center for Systems Biology/Program in Membrane Biology (MGH). […] Excess solution was blotted, grids were stained with phosphotungstic acid, and then blotted, dried and imaged. In vitro NP prodrug release was performed by incubating in PBS at 37° C., separating NPs using a 30 kDa molecular weight cutoff filter (Millipore Amicon) after 72 h, and measuring flow-through for drug content by absorbance (Nanodrop). NP was dissolved in DMF and also measured for drug content by absorbance. Pd-NP, Alloc2R110 and its nanoformulation, and all Pd compounds were synthesized and characterized as previously described.^5

Series [6] relates to HT1080 cancer cells. The experiment in a line: Subcellular drug accumulation by intrinsic anthracycline fluorescence microscopy. In kind it is cell-based, human. The following applies: HT1080, 24 h. On the procedure:
FIGS. 3A-3D. […] Co-localization was determined by tabulating the fraction of NP-positive puncta (vesicles) in cells that contained high RFP expression or not (labeled red and gray, respectively; n>10 cells, bars are mean±std. dev.). b) Following 30 min pre-treatment with the indicated compounds, HT1080 cells were treated with the same NP as in a, and imaged 3 h later (n>6 biological replicates; mean±s.e.m.). c-d) HT1080 tumor cells were treated with C16proDOX, DOX, or Pd-NP with C16proDOX for 24 h, and then imaged by fluorescence microscopy (representative images shown in c) to evaluate subcellular drug accumulation based on endogenous anthracycline fluorescence (scale bar, 20 μm). Yellow lines (c) denote representative examples of how fluorescence intensity profiles were quantified from line-scans through cells (d), shown as means (thick line)±s.e.m. (shading; n>10), for hoechstand anthracycline fluorescence.

For series [7] the following is noted: cited from earlier work.
For series [8] the following is noted: without the C16 anchor; cited from earlier work.

Turning to `C=CCOC(=O)Nc1ccc(C(OC(=O)Nc2ccc3c(C)cc(=O)oc3c2)C(=O)NCCOCCOCCOCCO)cc1` (stereo not drawn) [Alloc-SIL-PEG4-AMC, Alloc-SIL-AMC-dPEG4], the “uncaging rate relative to Alloc2R110 (calculated second order rate constants)” value in series [1] is “approximately 1.5 fold”.

Consider `CCN(CC)CCCC(C)Nc1ccnc2cc(Cl)ccc12` (stereo not drawn) [chloroquine, reference compound], for which the “NP accumulation in vesicles” value in series [2] (HT1080, 50 μM chloroquine co-treatment, 24 h) is reported as “enhanced accumulation of NPs in distinctly large vesicles”. For the same molecule, the “impact on cytotoxicity of combined Pd-NP and C16proDOX treatment” value in series [3] (HT1080, 50 μM chloroquine, 50 μM Pd-NP, 72 h) is on record as “only modest impact”. In addition, the cytotoxicity at 72 h, 50 μM in series [4] was 15 to 30%.

Turning to `C/C1=C/C(=O)O[C@@H]2C[C@@H](CC[C@H](C)/C=C\C=C\CC1)O[C@@](O)([C@@H]1CSC(=O)N1)C2` [latrunculin A], the “uptake of fluorescent PLGA-PEG NPs” value in series [2] is listed as “acutely reduced the uptake of NPs”.

Regarding `CN[C@@H]1C[C@H]2O[C@@](C)([C@@H]1OC)n1c3ccccc3c3c4c(c5c6ccccc6n2c5c31)C(=O)NC4` [staurosporine], the “uptake of fluorescent PLGA-PEG NPs” value in series [2] is listed as “decreased NP accumulation”.

Consider `CCN(c1nc(N)c(C(=O)N=C(N)N)nc1Cl)C(C)C` [EIPA, 5-(N-Ethyl-N-isopropyl)amiloride], for which the “uptake of fluorescent PLGA-PEG NPs” value in series [2] was “acutely reduced the uptake of NPs”.

`C=CCOC(=O)Nc1ccc(C(OC(=O)N[C@H]2C[C@H](O[C@H]3C[C@](O)(C(=O)CO)Cc4c(O)c5c(c(O)c43)C(=O)c3c(OC)cccc3C5=O)O[C@@H](C)[C@H]2O)C(=O)NCCCCCCCCCCCCCCCC)cc1` (stereo partly drawn) [C16proDOX, Alloc-SIL-C16-Dox]: the “release of the prodrug payload from the nanoformulation” value in series [5] is 20%±6%. The “IC20, fold higher than Alloc-DOX” value in series [3] (HT1080, without Pd-NP) is listed as “roughly 15 fold”. The “IC20, fold higher than uncaged DOX” value in series [3] (HT1080, without Pd-NP) is given as about 1900 fold. Also, the IC50 in series [3] (Homo sapiens, HT-1080, 72 h) was over 50 µM. Also, the subcellular accumulation entry in series [6] (co-incubation with Pd-NP) is recorded as “detectable increase of drug in the nucleus compared to the cytoplasm”; in series [6] (without Pd-NP), “accumulated primarily in cytoplasmic/perinuclear cellular compartments”.

For `COc1cccc2c1C(=O)c1c(O)c3c(c(O)c1C2=O)C[C@@](O)(C(=O)CO)C[C@@H]3O[C@H]1C[C@H](N)[C@H](O)[C@H](C)O1` [doxorubicin, reference compound], in series [7] (solvent- and nano-formulations, equimolar doses), the myelotoxicity result is “exhibited myelotoxicity”. For the same molecule, the “nano-encapsulation efficiency (earlier report)” value in series [8] is 22%. Further, in series [3] (Homo sapiens, HT-1080, 72 h), the IC50 came out at 0.1 µM. Further, the subcellular accumulation result in series [6] (without Pd-NP) is reported as “primarily accumulates in the nuclei of cancer cells”.

With `C=C1[C@@H](C)[C@H]2[C@H](Cc3ccccc3)NC(=O)[C@]23[C@H](OC(C)=O)/C=C/[C@@](C)(O)C(=O)[C@@H](C)C/C=C/[C@H]3[C@@H]1O` [cytochalasin D], the “uptake of fluorescent PLGA-PEG NPs” value in series [2] is on record as “acutely reduced the uptake of NPs”.

For `C=CCOC(=O)N[C@H]1C[C@H](O[C@H]2C[C@](O)(C(=O)CO)Cc3c(O)c4c(c(O)c32)C(=O)c2c(OC)cccc2C4=O)O[C@@H](C)[C@H]1O` [Alloc-DOX, reference compound], in series [7] (dual Pd-NP and Alloc-DOX strategy), the myelotoxicity entry is given as “did not”. Moreover, the IC50 in series [3] (HT1080, 72 h, without Pd-NP) was found to be 18 µM. The “turn-on capacity in cytotoxicity” value in series [3] (with vs without Pd-NP) was about 700 ×.
